The test system of data set [1] is Dalmatian toadflax (Linaria dalmatica). Description: Herbicide efficacy field trial, visual percent control of Dalmatian toadflax. It is filed as in vivo. The conditions noted are these: 4 YAT. As for the experimental part: The present inventors conducted a field trial to evaluate the effectiveness of herbicides for long-term downy brome and Dalmatian toadflax control. The experiment was conducted at one site. The results provide the framework for the subsequent greenhouse experiment. (See below). The field experiment was located in Longmont, Colo. (lat 40° 14′57.53″N, long 105° 12′35.46″W) on Rabbit Mountain Open Space, the easternmost point of the foothills in Boulder County. The canopy cover of actively growing downy brome and Dalmatian toadflax at peak standing crop was approximately 85% and 30%, respectively. Before herbicide application (June and August), perennial grasses (<10% canopy cover) included primarily western wheatgrass (Pascopyrum smithii (Rydb.) A. Love), and native forbs and sub-shrubs (˜20% canopy cover) included Louisiana sage (Artemisia ludoviciana Nutt.), fringed sage (Artemisia frigida Willd.), common sunflower (Helianthus annuus L.), sulphur-flower buckwheat (Eriogonum umbellatum Torr.), and hairy goldenaster (Heterotheca villosa (Pursh) Shinners). The soil at the study site was Baller sandy loam (loamy-skeletal, mixed, superactive, mesic Lithic Haplustolls), with 1.5% organic matter in the top 20 cm. The average elevation was 1,725 m (5,660 ft). Mean annual precipitation based on the 30-yr average was 363 mm and the mean annual temperature was 9.1° C. […]. A statewide-drought occurred and average total precipitation decreased 134 mm; however, the site received an additional 110 mm above the 30-yr average.
Herbicides were applied in the summer at two application timings; June, when Dalmatian toadflax was in the flowering growth stage, and August, during Dalmatian toadflax regrowth. These two application timings (June and August) were both before downy brome emergence (PRE). The 13 herbicide treatments (including a non-treated control) were applied to 3 by 9 m plots arranged in a randomized complete block design with four replications, and are listed in Table 1. […]
For the herbicide efficacy field experiment, repeated measures analysis of variance (ANOVA) was used to determine the effects of herbicide treatments on long-term Dalmatian toadflax and downy brome control. Percent control data were first analyzed in SAS 9.3 using Proc MIXED, with year after treatment defined as the repeated measure (SAS Institute 2010). […] Dalmatian toadflax and downy brome control response variables were analyzed separately, and main effects and interactions were tested at the α=0.05 significance level. […] To determine herbicide impacts on residual Dalmatian toadflax and downy brome control, the significant treatment-by-year interaction was evaluated using the Proc GLIMMIX method and the LINES statement. […]

For data set [2] the following is noted: pH 7; cited from earlier work.
The conditions of data set [3]: average; cited from earlier work.
The test system of data set [4] is Common mullein (Verbascum thapsus). The experiment in a line: Greenhouse pre-emergence dose-response bioassay (GR50). In kind it is in vivo. The following applies: pre-emergence. An excerpt:
(§1) A greenhouse experiment was designed to determine if the extended control of Dalmatian toadflax and downy brome provided by indaziflam in the field was due to increased residual seedling control. This experiment was designed to compare indaziflam's pre-emergence efficacy to the currently recommended herbicides (aminocyclopyrachlor and aminopyralid) for annual, biennial, and perennial weed control in non-crop areas. […] This allows for direct comparisons between herbicides on an active ingredient basis for aminopyralid, aminocyclopyrachlor, and indaziflam.
(§2) For the greenhouse bioassay, seeds were planted at a constant depth of 0.5 cm in 13- by 9- by 6-cm plastic containers, filled with an Otero sandy clay loam field soil (Coarse-loamy, mixed (calcareous), mesic Aridic Ustorthents) with 3.9% OM and pH 7.7. Seeding densities were adjusted based on germinability to reach a target density of 40 plants/pot. Plants were maintained in a greenhouse with a 25/20° C. day/night temperature with natural light supplemented with high-intensity discharge lamps to give a 15-h photoperiod. Plants were sub-irrigated as needed and misted overhead daily to reduce soil crusting.
(§3) The greenhouse experiment was a completely randomized design with a factorial of seven herbicide rates and a non-treated control with three replicates per treatment. The experiments were conducted at two different times. A preliminary greenhouse study was conducted for each herbicide and species to determine a range of doses that would best fit a logistic regression. It is not unusual for both pre-emergence and post-emergence herbicides to provide control at lower than labeled rates, e.g., 0.5-560 g ai ha^−1 (aminocyclopyrachlor), 0.9-224 g ai ha^−1 (aminopyralid), and 0.05-11.7 g ai ha^−1 (indaziflam) in the greenhouse with ideal environmental conditions, so it was not surprising that herbicide doses for the regression analysis were much lower than recommended field use rates. Herbicides were applied pre-emergence using a Generation III research track sprayer (DeVries Manufacturing, Hollandale, Minn.) equipped with a TeeJet 8002 EVS flat-fan spray nozzle (TeeJet Spraying Systems Co., Wheaton, Ill.) at 187 L·ha-1 at 172 kPa.
(§4) Plants were harvested at the soil surface approximately 4 to 5 week-after-treatment (WAT) depending on the growth stage of each species. Weights were recorded after samples were dried for 5 days at 60° C. Percent dry weight reduction was calculated relative to the non-treated control plants for each treatment.
(§5) Data from the greenhouse dose-response experiment were first analyzed using the PROC MIXED method in SAS 9.3 with treatment as a fixed effect and experiment and replicate as random effects (SAS Institute 2010). Based on a non-significant homogeneity of variance (ANOVA) and experiment-by-herbicide rate interaction, results from the repeated experiments were pooled. The treatment effect was significant, therefore, nonlinear regression in Graphpad Prism 7.00 (GraphPad Software, La Jolla Calif. USA) was used to describe the response of the nine weed species to aminocyclopyrachlor, aminopyralid, and indaziflam. The herbicide concentrations resulting in 50% reduction in plant biomass (GR50) compared to the non-treated control were determined for each invasive weed species using four-parameter log-logistic regression. The equation used to regress herbicide concentration with percent reduction in plant dry biomass as compared to the non-treated control was:
(§6) where C and D represent the lower and upper limits of the dose-response curve, respectively, and b represents the slope of the best-fitting curve through the GR50 value. For curve fitting and GR50 estimation, the model was constrained to a maximum of 100 and minimum of 0. Mean separation of herbicide GR50 values were analyzed by Fisher's Protected LSD test at the 5% level of probability. […]

Data set [5] deals with Common teasel (Dipsacus fullonum). Described as above. In kind it is in vivo. The following applies: for GR50 (herbicide dose resulting in 50% dry biomass reduction): pre-emergence.
From the text: as §1, §2, §3, §4, §5, §6

The test system of data set [6] is Curly dock (Rumex crispus). The data set is described as above. In kind it is in vivo. The following applies: pre-emergence.
From the text: as §1, §2, §3, §4, §5, §6

Data set [7] has as its system Dalmatian toadflax (Linaria dalmatica). The description is as above. It is filed as in vivo. The following applies: pre-emergence.
From the text: as §1, §2, §3, §4, §5, §6

Data set [8] has as its system Diffuse knapweed (Centaurea diffusa). The description is as above. In kind it is in vivo. The following applies: pre-emergence.
From the text: as §1, §2, §3, §4, §5, §6

The subject of data set [9] is Halogeton (Halogeton glomeratus). The data set is described as above. The following applies: pre-emergence. It is filed as in vivo.
From the text: as §1, §2, §3, §4, §5, §6

In data set [10] the test system is Marestail (Conyza Canadensis). Described as above. The following applies: pre-emergence. It is filed as in vivo.
From the text: as §1, §2, §3, §4, §5, §6

The test system of data set [11] is Musk thistle (Carduus nutans). The description is as above. In kind it is in vivo. The conditions noted are these: pre-emergence.
From the text: as §1, §2, §3, §4, §5, §6

In data set [12] the test system is downy brome (Bromus tectorum). The data set is described as above. It is filed as in vivo. The conditions noted are these: pre-emergence.
From the text: as §1, §2, §3, §4, §5, §6

`Nc1c(Cl)c(Cl)nc(C(=O)O)c1Cl` [Picloram, picloram]: the Dalmatian toadflax control in data set [1] (August application timing) came out at 64%; in data set [1] (June application timing), 68%. Besides, the “Log Kow” value in data set [2] is listed as 1.18. Besides, the water solubility in [3] is recorded as 200,000 mg L-1.
As for `Nc1cc(Cl)nc(C(=O)O)c1Cl` [Aminopyralid, aminopyralid], the “GR50 (herbicide dose resulting in 50% dry biomass reduction)” value in data set [4] is on record as 7.45 c g ai ha^−1; in data set [5], 0.75 a g ai ha^−1; in [6], 1.25 a g ai ha^−1; in data set [7], 14.8 c g ai ha^−1; in [8] it was 2.50 b g ai ha^−1; in data set [9], 3.11 c g ai ha^−1. For the same molecule, the “GR50 (herbicide dose resulting in 50% dry biomass reduction)” value in data set [10] is 0.80 b g ai ha^−1; in data set [11] it was 0.31 a g ai ha^−1; in data set [12] it was 38.5 b g ai ha^−1. For the same molecule, the “times more active (lower GR50) compared to aminocyclopyrachlor” value in [5] amounted to 9. The “times more active (lower GR50) compared to indaziflam” value in [5] came to 2. Moreover, in data set [2], the “Log Kow” value is −2.87. The water solubility in data set [3] is 207,000 mg L-1.
As for `Nc1nc(C2CC2)nc(C(=O)[O-])c1Cl.[K+]` [Aminocyclopyrachlor, aminocyclopyrachlor], the Dalmatian toadflax control in data set [1] (August application timing) worked out at 55%; in data set [1] (June application timing), 50%. Also, the “GR50 (herbicide dose resulting in 50% dry biomass reduction)” value in data set [4] is given as 3.05 b g ai ha^−1; in data set [5], 6.89 c g ai ha^−1; in data set [6] it was 21.3 b g ai ha^−1; in [7] it was 1.16 b g ai ha^−1; in data set [8] it was 6.20 c g ai ha^−1; in data set [9] it was 1.04 b g ai ha^−1. The “GR50 (herbicide dose resulting in 50% dry biomass reduction)” value in data set [10] was found to be 2.09 c g ai ha^−1; in [11], 1.25 b g ai ha^−1; in data set [12] it was 56.4 b g ai ha^−1. Besides, the “Log Kow” value in data set [2] is listed as −2.48. For the same molecule, the water solubility in data set [3] is reported as 4,200 mg L-1.

(Values after US20180289008A1, “METHODS FOR WILDFIRE CONTROL, INVASIVE PLANT CONTROL, AND RESIDUAL CONTROL OF INVASIVE PLANTS” (priority 2017, published 2018).)
